Patent US8124566B2 (priority 2004, dated 2012)
“And” between values parts separate entries of the source, which are not always exact repeats. Equal entries are not always repeated. Where two headings read alike, the source gives them in different places.

Assays:
Format in all cases: cell-based
Settings in all cases: active ingredient alone
[1] = system: Venturia inaequalis; assay: Fungal growth assay, Venturia inaequalis (Example B-6 a)
[2] = system: Alternaria solani; assay: Fungal growth assay, Alternaria solani (Example B-4 a)
[3] = system: Septoria tritici; assay: Fungal growth assay, Septoria tritici (Example B-2 a)
[4] = system: Botrytis cinerea; assay: Fungal growth assay, Botrytis cinerea (Example B-1 a)
[5] = system: Pyricularia oryzae
[6] = system: Pythium ultimum; assay: Fungal growth assay, Pythium ultimum (Example B-7)
[7] = system: Pyrenophora teres; assay: Fungal growth assay, Pyrenophora teres (Example B-5 a)
[8] = system: Leptosphaeria nodorum; assay: Fungal growth assay, Leptosphaeria nodorum (Example B-8)

In the case of CC1CCN(c2c(-c3c(F)cc(F)cc3F)c(Cl)nc3ncnn23)CC1 [Cpd B-1], the “Observed control in % (% Cobs)” value ([1]; 0.0008 ppm [mg/L]) is reported as 17%, the “Observed control in % (% Cobs)” value ([1]; 0.0025 ppm [mg/L]) is reported as 32% and the “Observed control in % (% Cobs)” value ([1]; 0.0074 ppm [mg/L]) is reported as 61%.
With N#Cc1c[nH]cc1-c1cccc2c1OC(F)(F)O2 [Fludioxonil] the “Observed control in % (% Cobs)” value ([2]; 0.022 ppm [mg/L]) was 1% and the “Observed control in % (% Cobs)” value ([2]; 0.067 ppm [mg/L]) was 24%.
For CCCC1COC(Cn2cncn2)(c2ccc(Cl)cc2Cl)O1 (stereo not drawn) [Propiconazole], the “Observed control in % (% Cobs)” value ([3]; 0.007 ppm [mg/L]) was 0% and the “Observed control in % (% Cobs)” value ([3]; 0.067 ppm [mg/L]) was 7%.
With CO/C=C(/C(=O)OC)c1ccccc1Oc1cc(Oc2ccccc2C#N)ncn1 [Azoxystrobin] the “Observed control in % (% Cobs)” value ([4]; 0.60 ppm [mg/L]) was 7% and the “Observed control in % (% Cobs)” value ([4]; 1.80 ppm [mg/L]) was 14%.
In the case of CC(Cc1ccc(C(C)(C)C)cc1)CN1C[C@@H](C)O[C@@H](C)C1 (stereo partly drawn) [Fenpropimorph], the “Observed control in % (% Cobs)” value ([1]; 0.0025 ppm [mg/L]) is reported as 0% and the “Observed control in % (% Cobs)” value ([1]; 0.0222 ppm [mg/L]) is reported as 33%.
With Cc1cc(C2CC2)nc(Nc2ccccc2)n1 [Cyprodinil] the “Observed control in % (% Cobs)” value ([5]; 0.002 ppm [mg/L]) was 0%, the “Observed control in % (% Cobs)” value ([5]; 0.007 ppm [mg/L]) was 0% and the “Observed control in % (% Cobs)” value ([5]; 0.067 ppm [mg/L]) was 0%.
CC(C)C1C2CCC1c1c(NC(=O)c3cn(C)nc3C(F)F)cccc12 (racemic) [Cpd Ic] was tested, and the “Observed control in % (% Cobs)” value ([4]; 0.0025 ppm [mg/L]) was 0%, the “Observed control in % (% Cobs)” value ([4]; 0.0074 ppm [mg/L]) was 10% and the “Observed control in % (% Cobs)” value ([4]; 0.0222 ppm [mg/L]) was 23% and 18% and 12%. For the same compound, the “Observed control in % (% Cobs)” value ([4]; 0.0667 ppm [mg/L]) was 35% and 28%, the “Observed control in % (% Cobs)” value ([4]; 0.2000 ppm [mg/L]) was 71% and the “Observed control in % (% Cobs)” value ([6]; 0.0667 ppm [mg/L]) was 0%. For the same compound, the “Observed control in % (% Cobs)” value ([6]; 0.2000 ppm [mg/L]) was 0%, the “Observed control in % (% Cobs)” value ([6]; 0.6000 ppm [mg/L]) was 0% and the “Observed control in % (% Cobs)” value ([7]; 0.0667 ppm [mg/L]) was 37%. The “Observed control in % (% Cobs)” value ([7]; 0.2000 ppm [mg/L]) was 55%, the “Observed control in % (% Cobs)” value ([2]; 0.0025 ppm [mg/L]) was 8% and the “Observed control in % (% Cobs)” value ([2]; 0.0074 ppm [mg/L]) was 27%. The “Observed control in % (% Cobs)” value ([1]; 0.0222 ppm [mg/L]) was 6% and 10%, the “Observed control in % (% Cobs)” value ([1]; 0.0667 ppm [mg/L]) was 18% and the “Observed control in % (% Cobs)” value ([1]; 0.2000 ppm [mg/L]) was 59%. For the same compound, the “Observed control in % (% Cobs)” value ([8]; 0.0222 ppm [mg/L]) was 0%, the “Observed control in % (% Cobs)” value ([8]; 0.0667 ppm [mg/L]) was 0% and the “Observed control in % (% Cobs)” value ([8]; 0.2000 ppm [mg/L]) was 0%. The “Observed control in % (% Cobs)” value ([5]; 0.0001 ppm [mg/L]) was 2%, the “Observed control in % (% Cobs)” value ([5]; 0.0008 ppm [mg/L]) was 3% and the “Observed control in % (% Cobs)” value ([5]; 0.0025 ppm [mg/L]) was 13% and 6%. The “Observed control in % (% Cobs)” value ([5]; 0.0074 ppm [mg/L]) was 33%, the “Observed control in % (% Cobs)” value ([5]; 0.0222 ppm [mg/L]) was 59% and the “Observed control in % (% Cobs)” value ([3]; 0.0001 ppm [mg/L]) was 1%. For the same compound, the “Observed control in % (% Cobs)” value ([3]; 0.0008 ppm [mg/L]) was 13%.
For OC(Cc1ccccc1Cl)(Cn1nc[nH]c1=S)C1(Cl)CC1 (stereo not drawn) [Prothioconazole], the “Observed control in % (% Cobs)” value ([4]; 0.0222 ppm [mg/L]) was 8%, the “Observed control in % (% Cobs)” value ([4]; 0.0667 ppm [mg/L]) was 17% and the “Observed control in % (% Cobs)” value ([4]; 0.2000 ppm [mg/L]) was 52%.
With Fc1ccc([C@]2(Cn3cncn3)O[C@H]2c2ccccc2Cl)cc1 (racemic) [Epoxiconazole] the “Observed control in % (% Cobs)” value ([8]; 0.0025 ppm [mg/L]) was 9% and the “Observed control in % (% Cobs)” value ([8]; 0.0222 ppm [mg/L]) was 39%.
CC(C1CC1)C(O)(Cn1cncn1)c1ccc(Cl)cc1 (stereo not drawn) [Cyproconazole] was tested, and the “Observed control in % (% Cobs)” value ([5]; 0.022 ppm [mg/L]) was 0% and the “Observed control in % (% Cobs)” value ([5]; 0.200 ppm [mg/L]) was 0%.
For CC1COC(Cn2cncn2)(c2ccc(Oc3ccc(Cl)cc3)cc2Cl)O1 (stereo not drawn) [Difenoconazole], the “Observed control in % (% Cobs)” value ([8]; 0.0008 ppm [mg/L]) was 5%, the “Observed control in % (% Cobs)” value ([8]; 0.0025 ppm [mg/L]) was 16% and the “Observed control in % (% Cobs)” value ([8]; 0.0074 ppm [mg/L]) was 73%.
With N#Cc1c(Cl)c(Cl)c(Cl)c(C#N)c1Cl [Chlorothalonil] the “Observed control in % (% Cobs)” value ([5]; 0.002 ppm [mg/L]) was 0%, the “Observed control in % (% Cobs)” value ([5]; 0.007 ppm [mg/L]) was 0% and the “Observed control in % (% Cobs)” value ([5]; 0.067 ppm [mg/L]) was 0%.
With CC(Cc1ccc(C(C)(C)C)cc1)CN1CCCCC1 (stereo not drawn) [Fenpropidin] the “Observed control in % (% Cobs)” value ([6]; 5.4000 ppm [mg/L]) was 11% and the “Observed control in % (% Cobs)” value ([6]; 16.2000 ppm [mg/L]) was 34%.
For CO/C=C(/C(=O)OC)c1ccccc1COc1cccc(C(F)(F)F)n1 [Picoxystrobin], the “Observed control in % (% Cobs)” value ([4]; 0.0222 ppm [mg/L]) was 0%, the “Observed control in % (% Cobs)” value ([4]; 0.0667 ppm [mg/L]) was 6% and the “Observed control in % (% Cobs)” value ([4]; 0.2000 ppm [mg/L]) was 12%. For the same compound, the “Observed control in % (% Cobs)” value ([4]; 0.6000 ppm [mg/L]) was 20%.
C#CCOc1ccc(CCNC(=O)C(OCC#C)c2ccc(Cl)cc2)cc1OC (stereo not drawn) [Cpd F-1] was tested, and the “Observed control in % (% Cobs)” value ([7]; 5.4 ppm [mg/L]) was 2% and the “Observed control in % (% Cobs)” value ([7]; 16.2 ppm [mg/L]) was 6%.
